US5834286A, “Recombinant cells that express phytate degrading enzymes in desired ratios” (Rohm Enzyme Finland Oy, priority 1995, dated 1998)
Like-named read-outs stand apart in the source and are kept apart here.

Assays:
[1] = molecular target: T1, Aspergillus ficuum phytase, wild type (Ullah, 1988) (Aspergillus niger, UniProt P34752); details: reported by Ullah 1988; substrate not given; cited from earlier work
T1 construct: Ullah reportedly purified a phytase from wild-type A. ficuum; host or cells: wild-type A. ficuum (extracellular enzyme)

[2] = molecular target: Aspergillus ficuum phytase (WO 91/05053) (Aspergillus niger, UniProt P34752); details: reported in WO 91/05053; substrate not given; cited from earlier work
[3] = molecular target: T2, Aspergillus niger var. awamori strain ALKO243 (ATCC#38854) pH2.5 acid phosphatase, purified native enzyme, SEQ. ID. NO. 4 (Aspergillus awamori, UniProt P34755); assay: Apparent Km of purified pH2.5 acid phosphatase (phosphate release, molybdate detection); assay type: biochemical; details: 37° C., read-out: apparent Km for sodium phytate
T2 construct: Peptide #1110T is derived from a trypsin digestion of purified native pH2.5 acid phosphatase; endogenous in cells; host or cells: A. niger var. awamori strain ALKO243 (ATCC#38854), purified in house from the cell-free culture medium
T2 sequence (P34755 20-479): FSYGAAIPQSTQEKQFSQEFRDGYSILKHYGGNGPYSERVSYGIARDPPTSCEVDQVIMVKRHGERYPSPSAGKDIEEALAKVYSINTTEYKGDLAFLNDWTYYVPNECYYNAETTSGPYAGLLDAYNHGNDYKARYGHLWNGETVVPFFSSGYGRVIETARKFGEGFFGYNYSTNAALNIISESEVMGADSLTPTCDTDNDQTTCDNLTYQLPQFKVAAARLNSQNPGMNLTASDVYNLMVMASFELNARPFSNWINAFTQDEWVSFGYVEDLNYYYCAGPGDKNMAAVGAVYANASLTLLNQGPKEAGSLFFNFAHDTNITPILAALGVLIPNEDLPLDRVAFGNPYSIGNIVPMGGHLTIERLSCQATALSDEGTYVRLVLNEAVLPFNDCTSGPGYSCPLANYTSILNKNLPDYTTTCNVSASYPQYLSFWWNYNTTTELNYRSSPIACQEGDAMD
Procedure: (§1) Both assays measure the amount of inorganic phosphate that is released by enzyme action as colorimetrically quantifying using reduction of a phosphomolybdate complex. One phytase unit (PU) is the amount of enzyme which liberates, under the conditions described below, 1 nmol of inorganic phosphate from Na-phytate in one minute at 37° C. One pH2.5 acid phosphatase unit (HFU) is the amount of enzyme which liberates, under the conditions indicated below, 1 nmol of inorganic phosphate from P-nitrophenyl phosphate in one minute.
(§2) pH2.5 acid phosphatase activity was determined in a similar fashion: namely, 0.1 ml of diluted enzyme (diluted in 0.2M Glycine-HCl buffer, pH2.5) was added to 1.9 ml of substrate (30 mM p-nitrophenyl phosphate [Boehringer Mannheim] dissolved in 0.2M Glycine --HCl buffer) pH2.5. After a fifteen-minute incubation at 37° C., the reaction was terminated by addition of an equal volume of 15% TCA (as above). The released orthophosphate was measured using Reagent C (as described above), and the activity determined by a comparison to known diluted phosphate standards (as above) and by using the calculations described above.

[4] = substrate: O=[N+]([O-])c1ccc(OP(=O)(O)O)cc1; assay: purified protein, by the assay type; details: other: 37° C., pH2.5, pH 2.5
[5] = substrate: O=P(O)(O)O[C@H]1[C@H](OP(=O)(O)O)[C@@H](OP(=O)(O)O)[C@H](OP(=O)(O)O)[C@@H](OP(=O)(O)O)[C@H]1OP(=O)(O)O; assay: Apparent Km of purified pH2.5 acid phosphatase (phosphate release, molybdate detection); assay type: biochemical, Aspergillus niger var. awamori; details: other: 37° C., pH 2.5
Procedure: as §1, §2

Chain of Aspergillus ficuum phytase (WO 91/05053) (P34752 24-467): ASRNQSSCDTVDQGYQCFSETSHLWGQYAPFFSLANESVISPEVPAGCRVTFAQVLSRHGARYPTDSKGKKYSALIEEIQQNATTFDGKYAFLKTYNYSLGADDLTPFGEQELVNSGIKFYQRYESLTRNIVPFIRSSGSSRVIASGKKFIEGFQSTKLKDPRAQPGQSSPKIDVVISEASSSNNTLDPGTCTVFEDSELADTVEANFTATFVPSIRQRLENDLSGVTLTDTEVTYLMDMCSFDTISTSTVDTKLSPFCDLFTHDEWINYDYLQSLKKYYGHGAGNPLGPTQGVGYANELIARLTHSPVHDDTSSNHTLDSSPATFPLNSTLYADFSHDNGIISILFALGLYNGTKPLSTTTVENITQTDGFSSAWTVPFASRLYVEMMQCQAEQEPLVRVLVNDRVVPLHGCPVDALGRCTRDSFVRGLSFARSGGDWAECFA
T1 sequence (P34752 20-467): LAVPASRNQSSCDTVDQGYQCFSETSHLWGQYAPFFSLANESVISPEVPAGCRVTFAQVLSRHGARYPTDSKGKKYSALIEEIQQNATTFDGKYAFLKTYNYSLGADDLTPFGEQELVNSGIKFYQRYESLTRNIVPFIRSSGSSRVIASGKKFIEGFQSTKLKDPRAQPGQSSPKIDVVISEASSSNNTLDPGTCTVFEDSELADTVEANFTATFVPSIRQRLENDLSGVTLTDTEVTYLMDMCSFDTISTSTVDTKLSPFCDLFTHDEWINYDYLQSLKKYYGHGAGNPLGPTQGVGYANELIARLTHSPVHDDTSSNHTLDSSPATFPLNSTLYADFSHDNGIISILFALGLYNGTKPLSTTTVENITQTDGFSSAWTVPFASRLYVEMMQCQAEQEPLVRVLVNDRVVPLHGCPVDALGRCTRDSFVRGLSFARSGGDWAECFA

O=P(O)(O)O[C@H]1[C@H](OP(=O)(O)O)[C@@H](OP(=O)(O)O)[C@H](OP(=O)(O)O)[C@@H](OP(=O)(O)O)[C@H]1OP(=O)(O)O [phytate, myo-inositol-hexaphosphate]
Km [1]: ~40 µM
Km [2]: ~250 µM

O=P(O)(O)O[C@H]1[C@H](OP(=O)(O)O)[C@@H](OP(=O)(O)O)[C@H](OP(=O)(O)O)[C@@H](OP(=O)(O)O)[C@H]1OP(=O)(O)O [sodium phytate]
Km ([3]; listed as Na-phytate): ~700 µM
Km [3]: ~700 µM

B1: Aspergillus niger var. awamori strain ALKO243 (ATCC#38854) pH2.5 acid phosphatase, purified native enzyme, SEQ. ID. NO. 4 (Aspergillus awamori) (protein)
chain: FSYGAAIPQSTQEKQFSQEFRDGYSILKHYGGNGPYSERVSYGIARDPPTSCEVDQVIMVKRHGERYPSPSAGKDIEEALAKVYSINTTEYKGDLAFLNDWTYYVPNECYYNAETTSGPYAGLLDAYNHGNDYKARYGHLWNGETVVPFFSSGYGRVIETARKFGEGFFGYNYSTNAALNIISESEVMGADSLTPTCDTDNDQTTCDNLTYQLPQFKVAAARLNSQNPGMNLTASDVYNLMVMASFELNARPFSNWINAFTQDEWVSFGYVEDLNYYYCAGPGDKNMAAVGAVYANASLTLLNQGPKEAGSLFFNFAHDTNITPILAALGVLIPNEDLPLDRVAFGNPYSIGNIVPMGGHLTIERLSCQATALSDEGTYVRLVLNEAVLPFNDCTSGPGYSCPLANYTSILNKNLPDYTTTCNVSASYPQYLSFWWNYNTTTELNYRSSPIACQEGDAMD
notes: Peptide #1110T is derived from a trypsin digestion of purified native pH2.5 acid phosphatase; endogenous in cells; host or cells: A. niger var. awamori strain ALKO243 (ATCC#38854), purified in house from the cell-free culture medium
Km [4]: 4000 µM
Km [5]: 700 µM
